According to the supplement of paper PMC10307832:

Key:
Assay in all cases: relative viability (nuclei count vs DMSO), 5 days (fraction); higher = more cells survive
LCLC-103H = system: LCLC-103H
Method in brief: (§1)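 Nuclei were stained with Hoechst during a one-step fixation (final 0.05% Triton X-100, 1% formaldehyde, 1 ug/ml Hoechst) carried out 5 days after dosing, then counted on 4× images. The cells, lung cancer lines in 1536-well plates, had been dosed by pin tool the day after seeding with one drug alone or a fixed anchor-drug dose plus five library-drug doses (not always all listed) in √10 steps. Relative viability is the nuclei count in treated wells divided by that in vehicle wells, and each value is the median of duplicate plates.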

LXF-289 = system: LXF-289
Method in brief: as §1

NCI-H1355 = system: NCI-H1355
Method in brief: as §1

NCI-H1651 = system: NCI-H1651
Method in brief: as §1

NCI-H1755 = system: NCI-H1755
Method in brief: as §1

NCI-H1792 = system: NCI-H1792
Method in brief: as §1

NCI-H1915 = system: NCI-H1915
Method in brief: as §1

NCI-H2170 = system: NCI-H2170
Method in brief: as §1

NCI-H2347 = system: NCI-H2347
Method in brief: as §1

NCI-H3122 = system: NCI-H3122
Method in brief: as §1

NCI-H322M = system: NCI-H322M
Method in brief: as §1

NCI-H441 = system: NCI-H441
Method in brief: as §1

NCI-H460 = system: NCI-H460
Method in brief: as §1

NCI-H520 = system: NCI-H520
Method in brief: as §1

NCI-H596 = system: NCI-H596
Method in brief: as §1

NCI-H650 = system: NCI-H650
Method in brief: as §1

NCI-H661 = system: NCI-H661
Method in brief: as §1

NCI-H727 = system: NCI-H727
Method in brief: as §1

PC-14 = system: PC-14
Method in brief: as §1

RERF-LC-KJ = system: RERF-LC-KJ
Method in brief: as §1

SK-MES-1 = system: SK-MES-1
Method in brief: as §1

SW 900 = system: SW 900
Method in brief: as §1

CC1(C)CCC(c2ccc(Cl)cc2)=C(CN2CCN(c3ccc(C(=O)NS(=O)(=O)c4ccc(N[C@H](CCN5CCOCC5)CSc5ccccc5)c(S(=O)(=O)C(F)(F)F)c4)cc3)CC2)C1 [Navitoclax] + Nc1ncn([C@H]2C[C@H](O)[C@@H](CO)O2)c(=O)n1 [Decitabine] (partner 2 µM)
relative viability (LCLC-103H; first compound 0.005 µM): 0.701
relative viability (LCLC-103H; first compound 0.01581 µM): 0.879
relative viability (LCLC-103H; first compound 0.05 µM): 0.764
relative viability (LCLC-103H; first compound 0.1581 µM): 0.703
relative viability (LCLC-103H; first compound 0.5 µM): 0.698
relative viability (LXF-289; first compound 0.005 µM): 0.347
relative viability (LXF-289; first compound 0.01581 µM): 0.389
relative viability (LXF-289; first compound 0.05 µM): 0.349
relative viability (LXF-289; first compound 0.1581 µM): 0.349
relative viability (LXF-289; first compound 0.5 µM): 0.428
relative viability (NCI-H1355; first compound 0.005 µM): 0.338
relative viability (NCI-H1355; first compound 0.01581 µM): 0.372
relative viability (NCI-H1355; first compound 0.05 µM): 0.369
relative viability (NCI-H1355; first compound 0.1581 µM): 0.355
relative viability (NCI-H1355; first compound 0.5 µM): 0.347
relative viability (NCI-H1651; first compound 0.005 µM): 0.797
relative viability (NCI-H1651; first compound 0.01581 µM): 0.591
relative viability (NCI-H1651; first compound 0.05 µM): 0.42
relative viability (NCI-H1651; first compound 0.1581 µM): 0.628
relative viability (NCI-H1651; first compound 0.5 µM): 0.644
relative viability (NCI-H1755; first compound 0.005 µM): 0.664
relative viability (NCI-H1755; first compound 0.01581 µM): 0.727
relative viability (NCI-H1755; first compound 0.05 µM): 0.611
relative viability (NCI-H1755; first compound 0.1581 µM): 0.677
relative viability (NCI-H1755; first compound 0.5 µM): 0.697
relative viability (NCI-H1792; first compound 0.005 µM): 0.488
relative viability (NCI-H1792; first compound 0.01581 µM): 0.644
relative viability (NCI-H1792; first compound 0.1581 µM): 0.525
relative viability (NCI-H1792; first compound 0.5 µM): 0.447
relative viability (NCI-H1915; first compound 0.005 µM): 0.263
relative viability (NCI-H1915; first compound 0.01581 µM): 0.242
relative viability (NCI-H1915; first compound 0.05 µM): 0.274
relative viability (NCI-H1915; first compound 0.1581 µM): 0.247
relative viability (NCI-H1915; first compound 0.5 µM): 0.25
relative viability (NCI-H2170; first compound 0.005 µM): 0.473
relative viability (NCI-H2170; first compound 0.01581 µM): 0.484
relative viability (NCI-H2170; first compound 0.05 µM): 0.475
relative viability (NCI-H2170; first compound 0.1581 µM): 0.414
relative viability (NCI-H2170; first compound 0.5 µM): 0.434
relative viability (NCI-H2347; first compound 0.005 µM): 0.668
relative viability (NCI-H2347; first compound 0.01581 µM): 0.551
relative viability (NCI-H2347; first compound 0.05 µM): 0.574
relative viability (NCI-H2347; first compound 0.1581 µM): 0.654
relative viability (NCI-H2347; first compound 0.5 µM): 0.582
relative viability (NCI-H3122; first compound 0.005 µM): 0.407
relative viability (NCI-H3122; first compound 0.01581 µM): 0.446
relative viability (NCI-H3122; first compound 0.05 µM): 0.471
relative viability (NCI-H3122; first compound 0.1581 µM): 0.433
relative viability (NCI-H3122; first compound 0.5 µM): 0.444
relative viability (NCI-H322M; first compound 0.005 µM): 0.722
relative viability (NCI-H322M; first compound 0.01581 µM): 0.863
relative viability (NCI-H322M; first compound 0.05 µM): 0.703
relative viability (NCI-H322M; first compound 0.1581 µM): 0.655
relative viability (NCI-H322M; first compound 0.5 µM): 0.725
relative viability (NCI-H441; first compound 0.005 µM): 0.255
relative viability (NCI-H441; first compound 0.01581 µM): 0.217
relative viability (NCI-H441; first compound 0.05 µM): 0.207
relative viability (NCI-H441; first compound 0.1581 µM): 0.2
relative viability (NCI-H441; first compound 0.5 µM): 0.237
relative viability (NCI-H460; first compound 0.005 µM): 0.481
relative viability (NCI-H460; first compound 0.01581 µM): 0.523
relative viability (NCI-H460; first compound 0.05 µM): 0.234
relative viability (NCI-H460; first compound 0.1581 µM): 0.411
relative viability (NCI-H460; first compound 0.5 µM): 0.444
relative viability (NCI-H520; first compound 0.005 µM): 0.432
relative viability (NCI-H520; first compound 0.01581 µM): 0.48
relative viability (NCI-H520; first compound 0.05 µM): 0.423
relative viability (NCI-H520; first compound 0.1581 µM): 0.487
relative viability (NCI-H520; first compound 0.5 µM): 0.489
relative viability (NCI-H596; first compound 0.005 µM): 1.04
relative viability (NCI-H596; first compound 0.01581 µM): 0.951
relative viability (NCI-H596; first compound 0.05 µM): 0.786
relative viability (NCI-H596; first compound 0.1581 µM): 0.998
relative viability (NCI-H596; first compound 0.5 µM): 1.01
relative viability (NCI-H650; first compound 0.005 µM): 0.331
relative viability (NCI-H650; first compound 0.01581 µM): 0.298
relative viability (NCI-H650; first compound 0.05 µM): 0.32
relative viability (NCI-H650; first compound 0.1581 µM): 0.336
relative viability (NCI-H650; first compound 0.5 µM): 0.264
relative viability (NCI-H661; first compound 0.005 µM): 0.556
relative viability (NCI-H661; first compound 0.01581 µM): 0.595
relative viability (NCI-H661; first compound 0.05 µM): 0.545
relative viability (NCI-H661; first compound 0.1581 µM): 0.547
relative viability (NCI-H661; first compound 0.5 µM): 0.567
relative viability (NCI-H727; first compound 0.005 µM): 0.903
relative viability (NCI-H727; first compound 0.01581 µM): 1.08
relative viability (NCI-H727; first compound 0.05 µM): 0.839
relative viability (NCI-H727; first compound 0.1581 µM): 0.786
relative viability (NCI-H727; first compound 0.5 µM): 1.02
relative viability (PC-14; first compound 0.005 µM): 0.237
relative viability (PC-14; first compound 0.01581 µM): 0.2
relative viability (PC-14; first compound 0.05 µM): 0.228
relative viability (PC-14; first compound 0.1581 µM): 0.211
relative viability (PC-14; first compound 0.5 µM): 0.19
relative viability (RERF-LC-KJ; first compound 0.005 µM): 0.834
relative viability (RERF-LC-KJ; first compound 0.01581 µM): 0.55
relative viability (RERF-LC-KJ; first compound 0.05 µM): 0.669
relative viability (RERF-LC-KJ; first compound 0.1581 µM): 0.733
relative viability (RERF-LC-KJ; first compound 0.5 µM): 0.708
relative viability (SK-MES-1; first compound 0.005 µM): 0.371
relative viability (SK-MES-1; first compound 0.01581 µM): 0.432
relative viability (SK-MES-1; first compound 0.05 µM): 0.349
relative viability (SK-MES-1; first compound 0.1581 µM): 0.344
relative viability (SK-MES-1; first compound 0.5 µM): 0.372
relative viability (SW 900; first compound 0.005 µM): 0.406
relative viability (SW 900; first compound 0.01581 µM): 0.412
relative viability (SW 900; first compound 0.1581 µM): 0.445
relative viability (SW 900; first compound 0.5 µM): 0.262
